The values below come from patent US9443060B2, “Method and system to provide personalized pharmaceutical compositions and dosages” (Volant Holdings GMBH, priority 2009, dated 2016).

“Also recorded” adds a separate entry of the source.

For experiment [1], the system named is hepatic gluconeogenesis (GNG). As to conditions: metformin 2550 mg daily, cited from earlier work.
The next experiment deals with metabolic syndrome. Kind of experiment: FS index / neural net model of cardiovascular risk in metabolic syndrome patient populations. The format is in vivo, human. As for the experimental part:
The FS index of MS comprises the following parameters: Fasting Blood Glucose, Fasting Insulin, HBA1c, BMI, AST, Triglycerides, Glucose Supply-Demand (S/D) index, and in certain cases, Proinsulin. Each parameter was mathematically arranged to increase as MS worsened, and weighted approximately equally in the prediction of MS progression and risk for CV events. […] FS index values were calculated from serial laboratory and clinical data over timeframes ranging between 2 and 10 years.
Neural Net Models and Data Display Methods. […] Unless otherwise stated, standard deviations (z-score) vs. time are presented in the individual and mean population graphics.
For purposes of analysis, clinical and laboratory parameters were converted into modified z-scores as follows: • A mean normal value (described as “mean” in the following) was selected based on review of literature and various published laboratory compendia. The Standard Deviation (SD) of each parameter was set to one half of the normal range. The modified z-score is calculated as follows: z=(Patient value−“mean”)/SD • On the graphs, the z-score is reported as the number of SD.
The FS index considered the following: Fasting Blood Glucose, Fasting Insulin, HBA1c, BMI, AST, Triglycerides, Glucose Supply-Demand (S/D) index, and in some cases Proinsulin. […] Each of these parameters was mathematically arranged to increase as Metabolic Syndrome worsened, and weighted approximately equally in the prediction of Metabolic Syndrome progression and risk for CV events.
The FS index was then applied to well-studied patient populations using a neural net model.
[formula] Where FBG is Fasting Blood Glucose in mg/dl and normal value is 100 mg/dl TG is Triglycerides in mg/dl normal value is <150 HBA1c is hemoglobin A1c in %, normal value is <6% BMI is body mass index as kg/m2 where a normal value is 20 and obese begins above 25 AST is Aspartate Transferase also called SGOT in IU/liter and a normal value is 5-50 FB insulin is fasting Blood insulin concentration in nmol/liter, a normal value is 4.0

Turning to `CN(C)C(=N)N=C(N)N` [Metformin], in experiment [1] (Hundal, 3 months, before 0.42±0.04), the “rate of hepatic GNG, ^2H2O method” value was 0.28±0.03 mmol/m^−2/min^−1. The “rate of hepatic GNG, nuclear magnetic resonance method” value in experiment [1] (Hundal, 3 months, before 0.59±0.03) is reported as 0.18±0.03 mmol/m^−2/min^−1. Besides, in experiment [1] (Hundal, 3 months), the “reduction of rate of hepatic GNG, ^2H2O method” value is 33% and the “reduction of rate of hepatic GNG, nuclear magnetic resonance method” value is 36%. For the same compound, the “reduction of rate of plasma lactate to plasma glucose conversion (GNG)” value in experiment [1] (Stumvoll, 16 weeks, fasted T2D) was 37%. Besides, in experiment [1] (Stumvoll, 16 weeks, before 7.3±0.7), the “rate of plasma lactate to plasma glucose conversion (GNG)” value was 4.6±0.6 μmol/kg^−1/min^−1. Also, in the experiment with metabolic syndrome (normal 20-50, 61 T2D on metformin, 100 RYGB, 18 Brake, 33 exenatide, 12 sitagliptin patients), the “FS index response to treatment” value is “Their FS index rises; also recorded: flat or slowly rising”. Moreover, the “other parameters of metabolic syndrome (BMI/weight, HBSD, lipids, NAFLD, blood pressure, insulin)” value in the experiment with metabolic syndrome (same patient populations as FS index) is “their HBSD rises, they gain weight”.
